These results are taken from PubChem BioAssay (NCI).

Holding throughout (assay): NCI tumour cell line growth inhibition, 48 h
Test [1] has as its system CCRF-CEM leukemia.
Test [2] deals with HCT-116 colon.
In test [3] the test system is HOP-62 NSCLC.
Test [4] concerns HT29 colon.
The test system of test [5] is SK-OV-3 ovarian.
In test [6] the test system is SNB-75 CNS.
The subject of test [7] is SR leukemia.
Test [8] deals with SW-620 colon.
Test [9] has as its system HL-60(TB) leukemia.
Test [10] has as its system K-562 leukemia.

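The compound was tested at five concentrations on cells cultured in 96-well plates, with a 48-hour exposure period. GI50 marks 50% less growth. The concentration for full growth arrest is given as TGI.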

Turning to `O=C(CS(=O)c1nc2ccccc2nc1-c1ccccc1)Nc1ccc(Cl)cc1` (stereo unspecified), the GI50 in test [1] is 23.4 µM; in test [2], 16 µM; in test [3], 23.2 µM; in [4], 48.5 µM; in [5], 51.3 µM; in test [6], over 100 µM. In addition, the GI50 was 18.7 µM in test [7] and 26.7 µM in test [8]. Further, the TGI was 56.8 µM in test [1]; 33.1 µM in test [2]; 71.8 µM in test [3]; over 100 µM in [4]; over 100 µM in test [5]; over 100 µM in test [6]. The TGI in test [7] is 47.6 µM; in [8] it was 88.2 µM.
As for `Cl.[O-]c1cccc2cccnc12.[O-]c1cccc2cccnc12.[O-]c1cccc2cccnc12.[O-]c1cccc2cccnc12.[Ti+4]`, the GI50 in test [1] is 0.291 µM; in test [2], 0.355 µM; in test [9] it was 0.226 µM; in test [3] it was 4.7 µM; in [4] it was 0.914 µM; in test [10], 0.303 µM. Also, the GI50 was 3.94 µM in test [5], 9.55 µM in test [6] and 0.393 µM in [8]. The TGI in test [3] is 59.6 µM; in [4], 6.86 µM; in test [5] it was over 73.8 µM; in test [6], over 100 µM; in [8] it was over 100 µM.
For the compound `O=C1C(c2ccccc2)=[N+]([O-])c2cc([N+](=O)[O-])ccc21`, the TGI was 40.5 µM in test [1]; 53.4 µM in test [2]; 30.1 µM in [9]; over 100 µM in test [3]; 47.9 µM in test [4]; 58.5 µM in [10]. For the same compound, the TGI in [5], in test [6] and in test [8] was over 100 µM throughout.
On to `Cc1cc2oc(=O)cc(OC/C=C3/CCC(=O)O3)c2cc1C`, for which the GI50 was 2.33 µM in test [1]; 2.72 µM in test [2]; 12.1 µM in test [3]; 2.9 µM in test [4]; 8.23 µM in [10]; 12.8 µM in [5]. Besides, the GI50 was 1.97 µM in test [6] and 2.78 µM in test [8]. In addition, the TGI in test [1] came to 7.25 µM; in [3], 26.4 µM; in test [4], 12.7 µM; in [10], 34.1 µM; in test [5] it was 26.1 µM; in [6] it was 9.61 µM. In test [8], this compound yielded a TGI of 11.6 µM.
`CCCc1nn(C)c(CCC(=O)N(Cc2ccccc2)Cc2ccccc2)c1CC`: the TGI in test [1], in [2], in test [9], in [3], in test [4] and in test [5] was over 100 µM each time. For the same compound, the TGI in test [6] and in test [8] was over 100 µM throughout.
With `Oc1ccccc1/C=N\Nc1ccccc1`, the GI50 in test [1] is 0.533 µM; in [2], 7.22 µM; in [9] it was 1.31 µM; in test [3], 21.9 µM; in test [4], 9.39 µM; in test [5], 70.4 µM. In addition, the GI50 was 21.2 µM in test [6] and 2.94 µM in [8]. In addition, the TGI is over 100 µM in test [1]; over 100 µM in test [2]; 4.8 µM in [9]; over 100 µM in test [3]; 28.4 µM in test [4]; over 100 µM in test [5]. For the same compound, the TGI in [6] and in [8] was over 100 µM each time.
On to `Cc1ccc(-c2nc3ccccc3c(=O)n2NC2OC(CO)C(O)C(O)C2O)cc1` (stereo unspecified), for which the TGI in [1], in test [2], in test [9], in test [3], in test [4] and in test [10] was over 100 µM each time. Also, the TGI in test [5], in test [6] and in test [8] was over 100 µM throughout.
For `CCCCCC1CC=CC(NC(=O)OCc2ccccc2)C1/C=C/CCCC1OCCO1` (stereo unspecified), the TGI was over 100 µM in test [1]; over 100 µM in test [2]; 33.4 µM in test [9]; over 100 µM in test [3]; over 100 µM in test [4]; over 100 µM in test [10]. Also, the TGI in test [5], in test [6] and in test [8] was over 100 µM each time.
Take `CCOP(=O)(OCC)C(NC(c1ccccc1)c1ccccc1)c1ccsc1` (stereo unspecified): the GI50 in test [9] is 23 µM; in test [10], 14.9 µM; in [7], 23 µM; in [8], 29.2 µM. The TGI in [9] is 56.9 µM; in test [10], 56.5 µM; in [7], 98.2 µM; in test [8], 61.5 µM.
As to `COc1ccc(Cl)cc1Nc1nc(C(F)(F)F)ccc1C(=O)N/N=C/c1ccccc1Cl`, the GI50 was 0.446 µM in test [1]; 2.81 µM in [2]; 2.74 µM in test [9]; 7.7 µM in [3]; 4.24 µM in test [4]; 10.7 µM in test [10]. Also, the GI50 in test [5] was 1.58 µM; in [6], 7.32 µM; in test [8] it was 3.3 µM. Besides, the TGI in [1] is 2.79 µM; in [2] it was over 100 µM; in [9], over 19.7 µM; in [3], over 29.2 µM; in test [4], over 100 µM; in test [10], over 21.8 µM. Also, the results for the TGI in test [5], in [6] and in [8] were 12.5 µM, over 100 µM and over 100 µM, respectively.
As for `COC(=O)/C(=N\Nc1nc(=S)[nH]n1N)C(C#N)c1ccc(Cl)cc1` (stereo unspecified), the TGI in test [2], in test [3], in test [4], in [5], in [6] and in test [8] was over 100 µM each time.
As to `CCC1=CCC(P(=O)(c2ccccc2)c2ccccc2)CC1C` (stereo unspecified), the TGI in test [1] was over 100 µM; in [2], 63.8 µM; in test [9], 53.6 µM; in [4] it was over 100 µM; in [10], over 100 µM; in test [5], over 100 µM. Further, the TGI in test [6] was 49.7 µM; in test [8], over 100 µM.
